Test results reported in a melting point compilation (Tetko et al.).

melting point | Compound
96 °C | O=C(O)CCCC(=O)c1cccs1
-80.8 °C | CCC1CCC(C)CC1 (stereo not given)
110 to 112 °C | CCOC(=O)c1cnc2c(c(C)nn2C)c1Oc1ccc(F)cc1
243 to 245 °C | COc1ccc(C=C2C(=O)NC(=N)N2C)cc1OC
124 °C | COc1ccccc1CC(=O)O
-3 °C | COC(=O)CS
-89.1 °C | CCc1ccsc1
56 to 61 °C | CC[C@H](CO)N1Cc2ccccc2C1
238 °C | CC1(C)OC(=O)C(=NNc2ccc(O)cc2)C(=O)O1
64 °C | COc1c(C)cc(N)cc1C
-119 °C | COC1CC1
-28.3 °C | CCCCCCC(CCCCCC)CCCCCC
11 to 12 °C | COC(=O)C(OC)C(=O)OC
181 °C | CC(=O)Nc1c(Cl)cccc1Cl
34 °C | CCC1C(=O)OCC1Cc1cncn1C (stereo not given)
118 °C | CC1=C(C(=O)OCc2ccccc2)C(c2ccccc2)NC(=O)N1C (stereo not given)
86 °C | CC(=O)c1c(F)ccc(F)c1C(=O)O
118 to 121 °C | O=C(O)CC[C@H](NC(=O)OCc1ccccc1)C(=O)O
122 to 123 °C | CCOC(=O)c1c(NC(=O)CN2CCN(C(=O)OCC)CC2)sc2c1CCCC2
63 °C | COC(=O)c1cnc(Br)s1
-42.6 °C | CCCCCCCCOC(=O)CC
52.5 °C | c1ccc(CCCCc2ccccc2)cc1
64 °C | O=C1c2ccccc2C(=O)N1CCOCCO
44 °C | CCCCCCCCCCCCCCCCCCCCc1ccccc1
27 °C | CCCCCCCCCCCCOCCOCCOCCOCCOCCOCCO
175 °C | CC(=O)Nc1ccc(OC(=O)c2ccccc2OC(C)=O)cc1

Second part, the compound before the results:

Compound | melting point
N#Cc1c(-c2ccc(Cl)cc2)n[nH]c1N | 216 to 217 °C
CCNCC | -50 °C
NS(=O)(=O)c1cc2c(s1)S(=O)(=O)CCC2=O | 242 °C
CC(C(=O)O)P(=O)(O)O (stereo not given) | 120 °C
NC(=NO)c1ccc(Oc2ccc(F)cc2F)c([N+](=O)[O-])c1 | 164 to 167 °C
O=C(CCl)NC1CC1 | 82 °C
O=C1C=C(NCc2ccc(Cl)c(Cl)c2)C(=O)c2ccccc21 | 217 °C
COc1ccc(C#N)c(Cl)c1OC | 102 °C
Nc1nc2ccccc2[nH]1 | 230 °C
CCCCCCCF | -73 °C
O=CC(Br)=C(Br)C(=O)O | 123 °C
N#Cc1c(-c2ccccc2)c2c(O)[nH]n(-c3ccccc3)c-2nc1=S | 142 °C
Oc1ncc(O)c(O)n1 | 330 °C
C(=C/c1ccc(/N=C/c2ccccc2)cc1)/c1ccc(/N=C/c2ccccc2)cc1 | 104 °C
O=C(c1ccco1)c1noc(-c2ccc([N+](=O)[O-])cc2)c1S(=O)(=O)c1ccccc1 | 138 °C
O=C(C(=S)Nc1ccc(Br)cc1)c1ccccc1 | 118 °C
FC(F)(F)c1ccc2c(Cl)ccnc2c1 | 69 to 73 °C
O=c1[nH]nc2ccccn12 | 234 °C
FC(F)(F)c1ccccc1-n1ccnc1 | 52 °C
N#CCS(=O)(=O)c1ccc(Cl)cc1Cl | 118 to 121 °C
O=[N+]([O-])c1ccc(-c2nc3n(c2[N+](=O)[O-])CCS3)cc1 | 203 to 205 °C
O=C=Nc1ccc(F)c([N+](=O)[O-])c1 | 27 to 28 °C
C12C3C4C1C1C2C3C41 (stereo not given) | 126 °C
O=[N+]([O-])c1cccc2ncccc12 | 74 °C
O=c1cc(Cl)nc[nH]1 | 194 to 195 °C
O=C(Cl)c1nccs1 | 54 to 58 °C
CN(C)c1cccc2c(S(=O)(=O)NC3CC(C)(C)N(O)C3(C)C)cccc12 (stereo not given) | 157 to 161 °C
O=C1CC(=O)CC(c2ccco2)C1 | 146 to 149 °C
CC1=Nc2ccccc2C1(C)C#N (stereo not given) | 73 °C
